In patent US12358911B2, “Heterocyclic comipound as CDK-HDAC dual pathway inhibitor” (Hangzhou Innogate Pharma Co., Ltd., priority 2018, dated 2025):

How the values were obtained:
Format in all cases: biochemical
CDK4/CycD3 = CDK4/CycD3 (Homo sapiens (Human), UniProt P11802); assay: CDK4 kinase assay (Mobility Shift Assay); settings: 28° C.
Protocol: (§1) • Method 1: In vitro enzymatic activity of the CDK isoforms CDK2/CycA2, CDK4/CycD3 and CDK6/cycD3 were measured using Mobility Shift Assay that monitors phosphorylation ratio of FAM labelled peptide (Peptide 18 for CDK2/CycA2, Peptide 8 for CDK4/CycD3). CDK2/CycA2 and CDK6/CycD3 were assayed under buffer conditions in the presence of 50 mM HEPES (pH 7.5), 10 mM MgCl2, 0.0015% Brij-35 and 2 mM dithiothreitol; CDK4/CycD3 with buffer condition of 20 mM HEPES (pH 7.5), 10 mM MgCl2, 0.01% Triton X-100 and 2 mM dithiothreitol. Prepare compounds to 50× of the final desired highest inhibitor concentration by 100% DMSO and serial dilution in 3-fold for total of 10 concentrations. For each isoform, dosage of enzyme and substrate are CDK2/CycA2 12 nM, ATP Km 39 μM; CDK4/CycD3 10 nM, ATP Km 221 μM; CDK6/cycD3 15 nM, ATP Km 800 μM. After assay for 60 min, 180 min, 60 min respectively at 28° C., reactions were terminated with stop solution (50 mM EDTA, 0.015% Brij-35, 0.2% Coating Reagent #3 and 100 mM HEPES (pH 7.5)). Collect conversion on Caliper EZ Reader. IC50 values were calculated by fitting the dose-response curves with Xlfit excel add-in version 4.3.1. • Method 2: In vitro enzymatic activity of the CDK isoforms CDK2/CycA2, CDK4/CycD3 and CDK6/CycD3 were measured using Mobility Shift Assay that monitors phosphorylation ratio of FAM labelled peptide (Peptide 18 for CDK2/CycA2, Peptide 8 for CDK4/CycD3 and CDK6/CycD3). CDK2/CycA2, CDK4/CycD3 and CDK6/cycD3 were assayed under buffer conditions in the presence of 50 mM HEPES (pH 7.5), 10 mM MgCl2, 0.0015% Brij-35 and 2 mM dithiothreitol. Prepare compounds to 100× of the final desired highest inhibitor concentration by 100% DMSO and serial dilution in 3-fold for total of 10 concentrations, each concentration contains 1% DMSO. […] After assay for 30 min, 150 min, 150 min respectively at 28° C., reactions were terminated with stop solution (50 mM EDTA, 0.015% Brij-35, 0.2% Coating Reagent #3 and 100 mM HEPES (pH 7.5)). Collect conversion on Caliper EZ Reader. IC50 values were calculated by fitting the dose-response curves with GraphPad Prism V5.0.

CDK6/CycD3 = CDK6/CycD3 (Homo sapiens (Human), UniProt Q00534); assay: CDK6 kinase assay (Mobility Shift Assay); settings: 28° C.
Protocol: as §1

CDK2/CycA2 = CDK2/CycA2 (Homo sapiens (Human), UniProt P24941); assay: CDK2 kinase assay (Mobility Shift Assay); settings: 28° C.
Protocol: as §1

[1] = target: recombinant, full-length HDAC-1 (Homo sapiens (Human), UniProt Q13547); assay: HDAC-1 assay (fluorogenic Ac-peptide-AMC)
Protocol: (§2) 2. HDAC-1 and HDAC-6 Assays: • Method 1: The inhibitory effect of compounds on HDAC-1 and HDAC-6 function was determined in vitro using an optimized homogenous assay performed in 384-well plate format. In this assay, recombinant, full-length HDAC-1 or HDAC-6 protein (BPS Biosciences) was incubated with Ac-peptide-AMC with concentration in Km plot. Reactions were performed in Tris-based assay buffer and followed for fluorogenic release of 7-amino-4-methylcoumarin from substrate upon deacetylase and trypsin enzymatic activity. Fluorescence measurements were obtained using a multilabel plate reader (Synergy MX with excitation at 355 nm and emission at 460 nm.). Data were analyzed on a plate-by-plate basis for the linear range of fluorescence over time. Fit the data in GraphPad Prism V5.0 software to obtain ICso values using equation (Y=Bottom+(Top−Bottom)/(1+10^((Log IC50−X)*Hill Slope), Y is % inhibition and X is compound concentration).
as §2, with “The testing results of the representative compounds are listed in Table 1 below. •” for “2. HDAC-1 and HDAC-6 Assays: •”, “Method 2:” for “Method 1:”, “HDAC-1 (Active Motif) and” for “HDAC-1 or”, “(Synergy” for “(Synergy MX”, “obtain IC50” for “obtain ICso”

[2] = target: recombinant, full-length HDAC-6 (Homo sapiens (Human), UniProt Q9UBN7); assay: HDAC-6 assay (fluorogenic Ac-peptide-AMC)
Protocol: as §2
as §2, with “The testing results of the representative compounds are listed in Table 1 below. •” for “2. HDAC-1 and HDAC-6 Assays: •”, “Method 2:” for “Method 1:”, “HDAC-1 (Active Motif) and” for “HDAC-1 or”, “(Synergy” for “(Synergy MX”, “obtain IC50” for “obtain ICso”

[3] = method 2: CDK4/CycD3 10 nM, ATP Km 250 μM, 150 min
[4] = method 2: CDK6/cycD3 5 nM, ATP Km 550 μM, 150 min
[5] = method 2: CDK2/CycA2 2.5 nM, ATP Km 17 μM, 30 min
[6] = method 2: HDAC-1 (Active Motif)
[7] = method 2: HDAC-6 protein (BPS Biosciences)
[8] = method 1: CDK4/CycD3 10 nM, ATP Km 221 μM, 180 min
[9] = method 1: CDK6/cycD3 15 nM, ATP Km 800 μM, 60 min
[10] = method 1: CDK2/CycA2 12 nM, ATP Km 39 μM, 60 min
[11] = method 1: HDAC-1 protein (BPS Biosciences)
[12] = method 1: HDAC-6 protein (BPS Biosciences)

CDK6/CycD3, sequence (Q00534 whole entry, species assumed): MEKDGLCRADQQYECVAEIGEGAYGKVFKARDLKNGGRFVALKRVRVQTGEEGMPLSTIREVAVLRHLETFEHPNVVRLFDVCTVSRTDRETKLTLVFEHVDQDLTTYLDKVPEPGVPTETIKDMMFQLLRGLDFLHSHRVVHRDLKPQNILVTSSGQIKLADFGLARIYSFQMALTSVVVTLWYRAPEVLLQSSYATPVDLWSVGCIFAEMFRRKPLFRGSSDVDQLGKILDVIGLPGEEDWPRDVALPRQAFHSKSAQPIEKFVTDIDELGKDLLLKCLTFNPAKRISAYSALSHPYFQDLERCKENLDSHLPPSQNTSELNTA
CDK6/CycD3, sequence (P30281 whole entry partner, species assumed): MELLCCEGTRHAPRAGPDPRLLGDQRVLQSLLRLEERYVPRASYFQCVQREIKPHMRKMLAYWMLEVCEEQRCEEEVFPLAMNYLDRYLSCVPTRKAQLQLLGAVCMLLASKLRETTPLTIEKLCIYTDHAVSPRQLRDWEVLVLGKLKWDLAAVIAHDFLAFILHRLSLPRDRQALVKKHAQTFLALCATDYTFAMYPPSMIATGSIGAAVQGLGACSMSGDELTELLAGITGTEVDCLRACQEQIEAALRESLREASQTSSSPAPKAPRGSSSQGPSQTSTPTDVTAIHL
recombinant, full-length HDAC-1, sequence (Q13547 whole entry): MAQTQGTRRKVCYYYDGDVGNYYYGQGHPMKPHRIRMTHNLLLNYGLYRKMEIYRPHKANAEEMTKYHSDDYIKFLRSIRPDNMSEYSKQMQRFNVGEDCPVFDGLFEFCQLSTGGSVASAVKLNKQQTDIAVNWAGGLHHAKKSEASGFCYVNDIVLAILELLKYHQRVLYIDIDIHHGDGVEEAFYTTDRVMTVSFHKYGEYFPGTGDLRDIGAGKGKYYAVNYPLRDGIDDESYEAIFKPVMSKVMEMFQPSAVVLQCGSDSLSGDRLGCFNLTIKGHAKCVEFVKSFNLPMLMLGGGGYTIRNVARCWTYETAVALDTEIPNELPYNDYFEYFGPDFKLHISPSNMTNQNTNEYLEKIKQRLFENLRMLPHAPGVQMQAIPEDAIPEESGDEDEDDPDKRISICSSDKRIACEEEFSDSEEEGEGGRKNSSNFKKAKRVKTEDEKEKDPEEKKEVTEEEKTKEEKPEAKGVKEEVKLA
CDK4/CycD3, sequence (P11802 whole entry, species assumed, canonical isoform): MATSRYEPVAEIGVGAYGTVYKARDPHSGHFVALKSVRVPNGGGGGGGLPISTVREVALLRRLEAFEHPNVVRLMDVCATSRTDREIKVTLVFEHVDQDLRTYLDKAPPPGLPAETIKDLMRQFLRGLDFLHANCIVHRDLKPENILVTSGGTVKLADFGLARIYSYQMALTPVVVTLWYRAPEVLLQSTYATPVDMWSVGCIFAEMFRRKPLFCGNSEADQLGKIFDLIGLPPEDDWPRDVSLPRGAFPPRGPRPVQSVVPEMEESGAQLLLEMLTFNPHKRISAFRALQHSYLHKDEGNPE
CDK4/CycD3, sequence (P30281 whole entry partner, species assumed, canonical isoform): as the sequence (P30281 whole entry partner, species assumed) above
recombinant, full-length HDAC-6, sequence (Q9UBN7 whole entry): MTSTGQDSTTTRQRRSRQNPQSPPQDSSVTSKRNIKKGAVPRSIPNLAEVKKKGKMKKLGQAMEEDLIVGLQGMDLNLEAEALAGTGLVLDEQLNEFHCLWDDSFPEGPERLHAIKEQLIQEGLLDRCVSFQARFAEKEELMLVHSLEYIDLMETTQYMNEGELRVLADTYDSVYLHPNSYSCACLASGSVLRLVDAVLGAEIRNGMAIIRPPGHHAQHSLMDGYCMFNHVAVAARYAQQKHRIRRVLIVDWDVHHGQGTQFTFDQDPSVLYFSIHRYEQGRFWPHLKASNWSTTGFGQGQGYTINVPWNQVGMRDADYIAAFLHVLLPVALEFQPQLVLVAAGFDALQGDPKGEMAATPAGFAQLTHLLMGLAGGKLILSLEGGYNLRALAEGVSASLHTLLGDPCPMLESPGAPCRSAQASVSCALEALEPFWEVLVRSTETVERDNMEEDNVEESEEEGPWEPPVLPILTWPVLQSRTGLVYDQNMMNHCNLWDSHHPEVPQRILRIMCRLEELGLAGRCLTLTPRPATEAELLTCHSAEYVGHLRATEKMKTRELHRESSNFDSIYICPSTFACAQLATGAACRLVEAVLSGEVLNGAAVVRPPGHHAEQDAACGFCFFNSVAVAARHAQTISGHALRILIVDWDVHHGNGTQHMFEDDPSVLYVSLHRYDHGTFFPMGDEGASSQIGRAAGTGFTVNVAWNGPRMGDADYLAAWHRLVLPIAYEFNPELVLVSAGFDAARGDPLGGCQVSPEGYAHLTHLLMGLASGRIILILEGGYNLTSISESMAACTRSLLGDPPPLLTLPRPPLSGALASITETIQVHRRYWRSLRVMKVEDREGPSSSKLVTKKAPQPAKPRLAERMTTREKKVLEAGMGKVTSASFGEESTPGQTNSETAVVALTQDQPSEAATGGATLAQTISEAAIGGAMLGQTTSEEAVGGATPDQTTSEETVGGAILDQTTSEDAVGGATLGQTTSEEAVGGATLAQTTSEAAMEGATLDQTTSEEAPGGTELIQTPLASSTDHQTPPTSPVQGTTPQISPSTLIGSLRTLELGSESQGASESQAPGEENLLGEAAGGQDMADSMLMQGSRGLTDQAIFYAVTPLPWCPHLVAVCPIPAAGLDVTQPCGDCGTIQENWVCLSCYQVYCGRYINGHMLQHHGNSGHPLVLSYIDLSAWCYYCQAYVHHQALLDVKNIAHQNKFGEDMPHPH

Compound	IC50 (CDK4/CycD3; [3]) [µM]	IC50 (CDK6/CycD3; [4]) [µM]	IC50 (CDK2/CycA2; [5]) [µM]	IC50 [1, 6] [µM]	IC50 [2, 7] [µM]	IC50 (CDK4/CycD3; [8]) [µM]	IC50 (CDK6/CycD3; [9]) [µM]	IC50 (CDK2/CycA2; [10]) [µM]	IC50 [1, 11] [µM]	IC50 [2, 12] [µM]
CC(=O)c1c(C)c2cnc(Nc3ccc(N(C)CCN(C)c4ccc(C(=O)NO)cn4)cn3)nc2n(C2CCCC2)c1=O [Compound 3, 6-((2-((6-((6-acetyl-8-cyclopentyl-5-methyl-7-oxo-7,8-dihydropyrido[2,3-d]pyrimidin-2-yl)amino)pyridin-3-yl)(methyl)amino)ethyl)(methyl)amino)-N-hydroxynicotinamide]	0.01 to 0.025	0.025 to 0.05	> 2	0.05 to 0.075	0.075 to 0.1					
CC(=O)c1c(C)c2cnc(Nc3ccc(N(C)CCN(C)c4ccc(C(=O)NO)cc4)cn3)nc2n(C2CCCC2)c1=O [Compound 8, 4-((2-((6-((6-acetyl-8-cyclopentyl-5-methyl-7-oxo-7,8-dihydropyrido[2,3-d]pyrimidin-2-yl)amino)pyridin-3-yl) (methyl)amino)ethyl) (methyl)amino)-N-hydroxybenzamide]	≤ 0.01	0.025 to 0.05	> 5							
CC(=O)c1c(C)c2cnc(Nc3ccc(N(C)CCN(C)c4ccc(C(=O)NO)nc4)cn3)nc2n(C2CCCC2)c1=O [Compound 4, 5-((2-((6-((6-acetyl-8-cyclopentyl-5-methyl-7-oxo-7,8-dihydropyrido[2,3-d]pyrimidin-2-yl)amino)pyridin-3-yl)(methyl)amino)ethyl)(methyl)amino)-N-hydroxypicolinamide]	≤ 0.01	0.025 to 0.05	> 5							
CC(=O)c1c(C)c2cnc(Nc3ccc(N(C)CCCCCCC(=O)NO)cn3)nc2n(C2CCCC2)c1=O [Compound 9, 7-((6-((6-acetyl-8-cyclopentyl-5-methyl-7-oxo-7,8-dihydropyrido[2,3-d]pyrimidin-2-yl)amino)pyridin-3-yl)(methyl)amino)-N-hydroxyheptanamide]	0.01 to 0.025	0.025 to 0.05	> 5	0.005 to 0.01	0.01 to 0.05					
CC(=O)c1c(C)c2cnc(Nc3ccc(N(C)Cc4ccc(/C=C/C(=O)NO)cc4)cn3)nc2n(C2CCCC2)c1=O [Compound 2, (E)-3-(4-(((6-((6-acetyl-8-cyclopentyl-5-methyl-7-oxo-7,8-dihydropyrido[2,3-d]pyrimidin-2-yl)amino)pyridin-3-yl)(methyl)amino)methyl)phenyl)-N-hydroxyacrylamide]						0.01 to 0.025	0.05 to 0.1	> 2	0.01 to 0.05	0.05 to 0.075
CC(=O)c1c(C)c2cnc(Nc3ccc(OCCN(C)c4ccc(C(=O)NO)cn4)cn3)nc2n(C2CCCC2)c1=O [Compound 5, 6-((2-((6-((6-acetyl-8-cyclopentyl-5-methyl-7-oxo-7,8-dihydropyrido[2,3-d]pyrimidin-2-yl)amino)pyridin-3-yl)oxy)ethyl)(methyl)amino)-N-hydroxynicotinamide]	≤ 0.01	0.025 to 0.05	> 2	≤ 0.005	0.005 to 0.01					
CC(=O)c1c(C)c2cnc(Nc3ccc(N4CCC(C(=O)NO)CC4)cn3)nc2n(C2CCCC2)c1=O [Compound 7, 1-(6-((6-acetyl-8-cyclopentyl-5-methyl-7-oxo-7,8-dihydropyrido[2,3-d]pyrimidin-2-yl)amino)pyridin-3-yl)-N-hydroxypiperidine-4-carboxamide]	≤ 0.01	0.025 to 0.05	> 2							
CC(=O)c1c(C)c2cnc(Nc3ccc(OCCN(C)c4ncc(C(=O)NO)cn4)cn3)nc2n(C2CCCC2)c1=O [Compound 10, 2-((2-((6-((6-acetyl-8-cyclopentyl-5-methyl-7-oxo-7,8-dihydropyrido[2,3-d]pyrimidin-2-yl)amino)pyridin-3-yl)oxy)ethyl)(methyl)amino)-N-hydroxypyrimidine-5-carboxamide]	0.01 to 0.025	0.025 to 0.05	> 10	≤ 0.005	0.01 to 0.05					
CC(=O)c1c(C)c2cnc(Nc3ccc(N(C)CCN(C)c4ncc(C(=O)NO)cn4)cn3)nc2n(C2CCCC2)c1=O [Compound 1, 2-((2-((6-((6-acetyl-8-cyclopentyl-5-methyl-7-oxo-7,8-dihydropyrido[2,3-d]pyrimidin-2-yl)amino)pyridin-3-yl) (methyl)amino)ethyl) (methyl)amino)-N-hydroxypyrimidine-5-carboxamide]						≤ 0.01	0.025 to 0.05	> 10	0.005 to 0.01	0.01 to 0.05
